Experimental data: PubChem BioAssay (NCI)
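Five concentrations, 48 hours, 96-well plates. The concentration for full growth arrest is given as TGI.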

Columns and labels:
Assay in all cases: NCI tumour cell line growth inhibition, 48 h
HT29 colon = tested on: HT29 colon
NCI-H522 lung = tested on: NCI-H522 lung
MCF7 breast = tested on: MCF7 breast
ACHN renal = tested on: ACHN renal
LOX IMVI melanoma = tested on: LOX IMVI melanoma
SK-OV-3 ovarian = tested on: SK-OV-3 ovarian
SF-268 CNS = tested on: SF-268 CNS
NCI/ADR-RES ovarian = tested on: NCI/ADR-RES ovarian
SK-MEL-28 melanoma = tested on: SK-MEL-28 melanoma
CAKI-1 renal = tested on: CAKI-1 renal
SK-MEL-5 melanoma = tested on: SK-MEL-5 melanoma
HOP-62 NSCLC = tested on: HOP-62 NSCLC
M14 melanoma = tested on: M14 melanoma
CCRF-CEM leukemia = tested on: CCRF-CEM leukemia
SF-295 CNS = tested on: SF-295 CNS
K-562 leukemia = tested on: K-562 leukemia
NCI-H226 lung = tested on: NCI-H226 lung
MDA-MB-231 breast = tested on: MDA-MB-231 breast
SNB-19 CNS = tested on: SNB-19 CNS
U251 CNS = tested on: U251 CNS
BT-549 breast = tested on: BT-549 breast
HCC-2998 colon = tested on: HCC-2998 colon
OVCAR-8 ovarian = tested on: OVCAR-8 ovarian
COLO 205 colon = tested on: COLO 205 colon
UACC-62 melanoma = tested on: UACC-62 melanoma
UACC-257 melanoma = tested on: UACC-257 melanoma
OVCAR-4 ovarian = tested on: OVCAR-4 ovarian
HOP-92 NSCLC = tested on: HOP-92 NSCLC
MDA-MB-435 = tested on: MDA-MB-435
MOLT-4 leukemia = tested on: MOLT-4 leukemia
786-0 renal = tested on: 786-0 renal
SF-539 CNS = tested on: SF-539 CNS
IGROV1 ovarian = tested on: IGROV1 ovarian
HS 578T breast = tested on: HS 578T breast
SK-MEL-2 melanoma = tested on: SK-MEL-2 melanoma
HCT-116 colon = tested on: HCT-116 colon
A549 NSCLC = tested on: A549 NSCLC
NCI-H460 lung = tested on: NCI-H460 lung
HCT-15 colon = tested on: HCT-15 colon
A498 renal = tested on: A498 renal
RXF 393 renal = tested on: RXF 393 renal
MALME-3M melanoma = tested on: MALME-3M melanoma
SNB-75 CNS = tested on: SNB-75 CNS
SW-620 colon = tested on: SW-620 colon
MDA-N = tested on: MDA-N
EKVX NSCLC = tested on: EKVX NSCLC
TK-10 renal = tested on: TK-10 renal
SN12C renal = tested on: SN12C renal
KM12 colon = tested on: KM12 colon
PC-3 prostate = tested on: PC-3 prostate
OVCAR-5 ovarian = tested on: OVCAR-5 ovarian
SR leukemia = tested on: SR leukemia
NCI-H23 lung = tested on: NCI-H23 lung
UO-31 renal = tested on: UO-31 renal
RPMI-8226 leukemia = tested on: RPMI-8226 leukemia
OVCAR-3 ovarian = tested on: OVCAR-3 ovarian
DU-145 prostate = tested on: DU-145 prostate
HL-60(TB) leukemia = tested on: HL-60(TB) leukemia

Measured: TGI

COc1cccc(NC(=O)c2c(SC)c(C#N)c(=O)n(N)c2N)c1
98.6 µM: SNB-19 CNS
81.3 µM: SNB-75 CNS
not listed: SR leukemia | NCI-H23 lung | UO-31 renal | RPMI-8226 leukemia | OVCAR-3 ovarian | DU-145 prostate | HL-60(TB) leukemia
> 100 µM: all other assays above

CCOC(=O)CC1c2ccc(O)cc2OC(=O)C1c1ccc(N)cc1 (stereo not drawn)
not listed: OVCAR-4 ovarian | HOP-92 NSCLC | OVCAR-5 ovarian | HL-60(TB) leukemia
> 100 µM: all other assays above

Nc1nc(Cl)c(/C=N\O)c(NCC2(CO)CC(=O)C2)n1
55.6 µM: HS 578T breast
70.4 µM: IGROV1 ovarian
82.1 µM: KM12 colon
not listed: SK-OV-3 ovarian | M14 melanoma | UACC-62 melanoma | SK-MEL-2 melanoma | SR leukemia
> 100 µM: all other assays above
